Here are results for one compound from paper PMC8811960, “A Novel 2-Carbon-Linked Dimeric Artemisinin With Potent Antileukemic Activity and Favorable Pharmacology” (Frontiers in Oncology, 2022).

Where only a bound is given, the exact number is not on record here.

One series relates to MOLM14. The experiment in a line: alamarBlue growth inhibition, MOLM14. Conditions: Homo sapiens, MOLM-14, 48 h. The series is classed as cell-based. On the procedure:
(§1) Cytotoxicity was assessed using alamarBlue assays (Life Technologies, Grand Island, NY) following manufacturer’s guidelines. Cell death was verified by Annexin V/7-aminoactinomycin D (7AAD) staining (BioLegend, San Diego, CA) per manufacturer’s guidelines.
In this experiment, provided to show the entire concentration:response range, MOLM14 AML cells were cultured with a range of concentrations of artesunate (AS), ART838, ART631, and ART576 for 48h. Graph indicates growth inhibition relative to vehicle (DMSO)-treated controls by alamarBlue absorbance assays. Data points and error bars represent mean and SD of 3 independent experiments done in triplicate.
(In general: Resazurin is reduced to fluorescent resorufin, in cell work by metabolically active cells.)

The subject of the next series is HL60. The experiment in a line: alamarBlue growth inhibition, HL60. The series is classed as cell-based. Conditions: Homo sapiens, HL-60, HL60, 48h, mean of 2 independent assays ± SD. On the procedure: as §1
For series [1] the following is noted: x5; cited from earlier work.
In a further series the test system is AML45 PDX. Also on record: method as in PMID 33560385. Conditions: monotherapy; cited from earlier work.
A further series concerns ML2. Description: alamarBlue growth inhibition, ML2. The series is classed as cell-based. Conditions: Homo sapiens, ML-2, ML2, 48h, mean of 2 independent assays ± SD. The protocol: as §1
The test system of a further series is TF1. Description: alamarBlue growth inhibition, TF1. Conditions: Homo sapiens, TF-1, TF1, 48h, mean of 2 independent assays ± SD. The series is classed as cell-based. On the procedure:
as §1

A further series concerns U937. The experiment in a line: alamarBlue growth inhibition, U937. The series is classed as cell-based. Conditions: Homo sapiens, U-937, U937, 48h, mean of 2 independent assays ± SD. The protocol:
as §1

The subject of a further series is K562. The experiment in a line: alamarBlue growth inhibition, K562. Conditions: Homo sapiens, K562, 48h, mean of 2 independent assays ± SD. The series is classed as cell-based. The protocol:
as §1

The subject of the next series is KG1a. The experiment in a line: alamarBlue growth inhibition, KG1a. The series is classed as cell-based. Conditions: Homo sapiens, KG-1a, 48h, mean of 2 independent assays ± SD. The protocol:
as §1

A further series concerns HEL. The experiment in a line: alamarBlue growth inhibition, HEL. Conditions: Homo sapiens, 48h, mean of 2 independent assays ± SD. The series is classed as cell-based. The protocol: as §1
For the next series, the system named is THP1. Description: alamarBlue growth inhibition, THP1. The series is classed as cell-based. Conditions: Homo sapiens, THP-1, THP1, 48h, mean of 2 independent assays ± SD. The protocol: as §1
The next series concerns DDIT3. The experiment in a line: qRT-PCR for DDIT3 mRNA. The series is classed as cell-based, human. Conditions: MOLM14, 18h, ART631 200 nM, ART838 200 nM, AS 10 uM, similar results in MV4;11 and ML2. On the procedure: Cells were pre-treated with […] ROS detection reagent 5-(and 6-)-chloromethyl-2’,7’-dichlorodihydrofluorescein diacetate (CM-H2DCFDA, Life Technologies) for 30 min, followed by the iron chelator deferoxamine mesylate (DFO; 11 mM) for 60 min. Cells were then treated with ART631 (200 nM) or DMSO control for 18h, with subsequent analysis by flow cytometry. Western blotting and quantitative reverse transcription PCR (qRT-PCR) to assess for molecular markers of ROS-mediated apoptosis were performed as previously described ([20]).
Figure 4 ART631 elevated ROS and CHOP levels and reduced MCL1 expression in MOLM14 AML cells. (A) MOLM14 AML cells were pre-treated with ROS detection reagent CM-H2DCFDA ([…]) for 30 min, pre-treated with deferoxamine mesylate (DFO; 11 mM) for 60 min, and then treated with ART631 (200 nM) or DMSO control for 18h. They were then analyzed by flow cytometry. Graph represents %CM-H2DCFDA fluorescence compared to vehicle (DMSO) control treated cells. Error bars represent SD from 3 independent experiments. (B) MOLM14 AML cells were treated for 18h with vehicle, AS (10 uM), ART838 (200 nM), ART631 (200 nM), cytarabine (AraC; 150 nM), or SOR (5 uM). Protein was isolated and western blotted for MCL1, BCL2, CHOP, and β-actin. (C) MOLM14 cells were treated as in (B) for 18h, total RNA isolated, cDNA synthesized, and SYBR Green qRT-PCR performed in triplicates. Ct values were normalized to housekeeping gene GAPDH and fold change shown relative to vehicle (DMSO) control. Error bars represent SD from 3 independent experiments done in triplicate.
In general terms: In qPCR the cycle at which signal appears reflects the starting amount.

A further series has as its system 10 human AML cell lines. Description: alamarBlue growth inhibition, panel of 10 human AML cell lines. The series is classed as cell-based. On the procedure:
as §1
Cell lines with adverse risk cytogenetic and molecular features, e.g. MLL rearrangements (ML2, MOLM14, MV4;11, THP1), FLT3-ITD (MOLM14, MV4;11), TP53 mutations (KG1a, ML2, THP1, U937), and NRAS/KRAS mutations (ML2, THP1), were among those exquisitely sensitive to ART631, with IC50s < 50 nM. The K562 cell line was the only exception, as it was resistant to all 3 of these ARTs. Based on this in vitro activity data combined with the drug stability data described below, ART631 was prioritized over ART576 for further in vitro and in vivo antileukemic efficacy experiments here ( Table 2 ).

A further series deals with 23 leukemia cell lines. Conditions: against 23 leukemia cell lines; cited from earlier work.
The conditions of series [2]: as previously reported; cited from earlier work.
The subject of a further series is MV4;11. Description: alamarBlue growth inhibition, MV4;11. The series is classed as cell-based. Conditions: Homo sapiens, MV4;11, 48h, mean of 2 independent assays ± SD. The protocol: as §1

What is called IC50 is the concentration needed to halve the response being measured. For the compound `C[C@@H]1CCC2[C@@H](C)[C@@H](CC(COP(=O)(Oc3ccccc3)Oc3ccccc3)C[C@H]3O[C@@H]4O[C@@]5(C)CCC6[C@H](C)CCC([C@H]3C)[C@]64OO5)O[C@@H]3O[C@@]4(C)CCC1[C@@]23OO4` (some centres unmarked) [ART838, reference compound], the IC50 in the series on MOLM14 was 28 ± 3 nM; in the series with HL60, 45 ± 3 nM; in the series with ML2, 40 ± 5 nM; in the series with TF1 it was 36 ± 3 nM; with U937, 22 ± 3 nM; with K562 it was greater than 1000 nM. In addition, the half-inhibitory concentration (IC50) with KG1a is 112 ± 7 nM; in the series on HEL it was 72 ± 6 nM; with THP1, 45 ± 3 nM; with 10 human AML cell lines (Homo sapiens, read-out: IC50 range) it was 22 to 112 nM; in the series with MV4;11, 28 ± 1 nM. Further, the “multiple day MTD regimen” value in series [1] is 50 mg/kg/day. Besides, in the series on AML45 PDX, the survival versus vehicle result is reported as “did not reach statistical significance”. In the series with DDIT3, the “DDIT3 mRNA” value is recorded as “increased”. Also, the “number of human AML cell lines whose growth was inhibited” value in the series with 10 human AML cell lines (of 10 human AML cell lines tested) was determined as 9. Also, the “fold more potent than artesunate (AS)” value in the series with 23 leukemia cell lines is 88 fold. The “degradation (stability)” value in [2] is given as no more than 20%.
